Patent US8796289B2 (AbbVie Inc., priority 2011, dated 2014)

The compounds below were run against GST-tagged-Wee1 kinase (Homo sapiens, UniProt P30291) (assay: Wee1 time-resolved fluorescence equilibrium binding assay (displacement of Oregon Green-labeled ATP-competitive kinase probe)).
Sequence of GST-tagged-Wee1 kinase (P30291 whole entry): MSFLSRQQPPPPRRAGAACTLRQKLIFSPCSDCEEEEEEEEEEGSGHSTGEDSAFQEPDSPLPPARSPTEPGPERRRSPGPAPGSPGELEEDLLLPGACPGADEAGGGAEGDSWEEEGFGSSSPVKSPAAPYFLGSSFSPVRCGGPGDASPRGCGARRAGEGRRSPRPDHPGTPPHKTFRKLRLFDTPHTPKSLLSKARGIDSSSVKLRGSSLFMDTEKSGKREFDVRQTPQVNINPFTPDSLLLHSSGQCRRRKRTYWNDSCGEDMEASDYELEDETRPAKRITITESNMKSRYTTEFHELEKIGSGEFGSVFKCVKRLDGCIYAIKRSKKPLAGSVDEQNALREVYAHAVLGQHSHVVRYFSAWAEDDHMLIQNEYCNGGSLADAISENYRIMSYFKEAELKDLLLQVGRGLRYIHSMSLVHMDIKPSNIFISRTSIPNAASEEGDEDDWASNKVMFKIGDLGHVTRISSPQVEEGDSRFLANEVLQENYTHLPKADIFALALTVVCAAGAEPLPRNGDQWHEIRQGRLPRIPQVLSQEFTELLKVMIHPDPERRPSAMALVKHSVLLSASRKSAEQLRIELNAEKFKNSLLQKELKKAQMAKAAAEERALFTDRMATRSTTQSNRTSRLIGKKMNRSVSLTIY
Method: Wee1 kinase was assayed using a time-resolved fluorescence equilibrium binding assay monitoring displacement of a rapidly reversible Oregon Green-labeled ATP-competitive kinase probe (N-(2-(2-(2-(4-(4-(5-chloro-4-(2-(1-hydroxycyclobutyl)thiazol-5-yl)-1H-pyrrolo[2,3-b]pyridin-2-yl)phenyl)piperazin-1-yl)ethoxy)ethoxy)ethyl)-2′,7′-difluoro-3′,6′-dihydroxy-3-oxo-3H-spiro[isobenzofuran-1,9′-xanthene]-5-carboxamide) by competitive Wee1 inhibitors.
`Cc1nn(-c2c(Cl)cccc2Cl)c(=O)c2cnc(Nc3cccc(NCCN4CCOCC4)c3)nc12` [Example 513, 6-(2,6-dichlorophenyl)-8-methyl-2-[(3-{[2-(morpholin-4-yl)ethyl]amino}phenyl)amino]pyrimido[4,5-d]pyridazin-5(6H)-one] gave a Ki of 1.1 nM.
Work on `Cn1cnc(-c2nn(-c3c(Cl)cccc3Cl)c(=O)c3cnc(Nc4ccc5c(c4)CNCC5)nc23)c1` [Example 342, 6-(2,6-dichlorophenyl)-8-(1-methyl-1H-imidazol-4-yl)-2-(1,2,3,4-tetrahydroisoquinolin-7-ylamino)pyrimido[4,5-d]pyridazin-5(6H)-one] yielded a Ki of 1 nM.
For `CN1CCN(c2ccc(Nc3ncc4c(=O)n(-c5c(F)cccc5Cl)nc(-c5cnn(C)c5)c4n3)cc2)CC1` [Example 302, 6-(2-chloro-6-fluorophenyl)-2-{[4-(4-methylpiperazin-1-yl)phenyl]amino}-8-(1-methyl-1H-pyrazol-4-yl)pyrimido[4,5-d]pyridazin-5(6H)-one], the Ki was 0.61 nM.
`O=c1c2cnc(Nc3ccc(N4CCNCC4)cc3)nc2c(-c2cccc(F)n2)nn1-c1c(Cl)cccc1Cl` [Example 226, 6-(2,6-dichlorophenyl)-8-(6-fluoropyridin-2-yl)-2-{[4-(piperazin-1-yl)phenyl]amino}pyrimido[4,5-d]pyridazin-5(6H)-one] was tested, and the Ki was < 1 nM.
For `Cc1nn(-c2ccccc2Cl)c(=O)c2cnc(Nc3ccc(N4CCN(CCCN(C)C)CC4)cc3)nc12` [Example 518, 6-(2-chlorophenyl)-2-[(4-{4-[3-(dimethylamino)propyl]piperazin-1-yl}phenyl)amino]-8-methylpyrimido[4,5-d]pyridazin-5(6H)-one], the Ki was 0.7 nM.
`Cc1nn(-c2c(Cl)cccc2Cl)c(=O)c2cnc(Nc3cccc(C(=O)NC4CCN(C)CC4)c3)nc12` [Example 523, 3-{[6-(2,6-dichlorophenyl)-8-methyl-5-oxo-5,6-dihydropyrimido[4,5-d]pyridazin-2-yl]amino}-N-(1-methylpiperidin-4-yl)benzamide] gave a Ki of 0.5 nM.
`C=CCn1nc(C)c2nc(Nc3ccc(N4CCN(C)CC4)cc3)ncc2c1=O` [Example 2, 6-allyl-8-methyl-2-{[4-(4-methylpiperazin-1-yl)phenyl]amino}pyrimido[4,5-d]pyridazin-5(6H)-one] was tested, and the Ki was 140 nM.
`CN1CCN(c2ccc(Nc3ncc4c(=O)n(-c5c(Cl)cccc5Cl)nc(-c5cccc(C(=O)N(C)C)c5)c4n3)cc2)CC1` [Example 189, 3-[6-(2,6-dichlorophenyl)-2-{[4-(4-methylpiperazin-1-yl)phenyl]amino}-5-oxo-5,6-dihydropyrimido[4,5-d]pyridazin-8-yl]-N,N-dimethylbenzamide] was tested, and the Ki was 0.02 nM.
Work on `CN1CCN(c2ccc(Nc3ncc4c(=O)n(-c5ccccc5)nc(-c5cccnc5Cl)c4n3)cc2)CC1` [Example 78, 8-(2-chloropyridin-3-yl)-2-{[4-(4-methylpiperazin-1-yl)phenyl]amino}-6-phenylpyrimido[4,5-d]pyridazin-5(6H)-one] yielded a Ki of 48 nM.
`Cc1nn(-c2c(Cl)cccc2Cl)c(=O)c2cnc(Nc3ccc4c(c3)C(C)(C)NCC4)nc12` [Example 444, 6-(2,6-dichlorophenyl)-2-[(1,1-dimethyl-1,2,3,4-tetrahydroisoquinolin-7-yl)amino]-8-methylpyrimido[4,5-d]pyridazin-5(6H)-one] was tested, and the Ki was 0.16 nM.
With `Cc1nn(-c2c(Cl)cccc2Cl)c(=O)c2cnc(Nc3cc4c(cc3Cl)CNCC4)nc12` [Example 472, 2-[(7-chloro-1,2,3,4-tetrahydroisoquinolin-6-yl)amino]-6-(2,6-dichlorophenyl)-8-methylpyrimido[4,5-d]pyridazin-5(6H)-one] the Ki was 2.3 nM.
`CN1CCN(c2ccc(Nc3ncc4c(=O)n(-c5ccccc5Cl)nc(-c5cccc(F)c5)c4n3)cc2)CC1` [Example 83, 6-(2-chlorophenyl)-8-(3-fluorophenyl)-2-{[4-(4-methylpiperazin-1-yl)phenyl]amino}pyrimido[4,5-d]pyridazin-5(6H)-one] gave a Ki of 0.2 nM.
Compound `CN1CCN(c2ccc(Nc3ncc4c(=O)n(-c5ccccc5Cl)nc(-c5ccccc5F)c4n3)cc2)CC1` [Example 40, 6-(2-chlorophenyl)-8-(2-fluorophenyl)-2-{[4-(4-methylpiperazin-1-yl)phenyl]amino}pyrimido[4,5-d]pyridazin-5(6H)-one] has a Ki of 1 nM.
`Cc1nn(-c2c(Cl)cccc2Cl)c(=O)c2cnc(Nc3cccc(NC4CCN(C)CC4)c3)nc12` [Example 522, 6-(2,6-dichlorophenyl)-8-methyl-2-({3-[(1-methylpiperidin-4-yl)amino]phenyl}amino)pyrimido[4,5-d]pyridazin-5(6H)-one] gave a Ki of 0.13 nM.
In the case of `Cc1nn(-c2c(F)cccc2Cl)c(=O)c2cnc(Nc3ccc(N4CCNCC4)cc3)nc12` [Example 396, 6-(2-chloro-6-fluorophenyl)-8-methyl-2-{[4-(piperazin-1-yl)phenyl]amino}pyrimido[4,5-d]pyridazin-5(6H)-one], the Ki is reported as 1 nM.
Work on `Cc1nn(-c2c(Cl)cccc2Cl)c(=O)c2cnc(Nc3cccc(N4CCN(C5COC5)CC4)c3)nc12` [Example 512, 6-(2,6-dichlorophenyl)-8-methyl-2-({3-[4-(oxetan-3-yl)piperazin-1-yl]phenyl}amino)pyrimido[4,5-d]pyridazin-5(6H)-one] yielded a Ki of 1.4 nM.
Compound `CN1CCN(c2ccc(Nc3ncc4c(=O)n(-c5ccccc5)nc(-c5ccccc5)c4n3)cc2)CC1` [Example 27, 2-{[4-(4-methylpiperazin-1-yl)phenyl]amino}-6,8-diphenylpyrimido[4,5-d]pyridazin-5(6H)-one] has a Ki of 2 nM.
Compound `CN1CCN(c2ccc(Nc3ncc4c(=O)n(-c5c(Cl)cccc5Cl)nc(-c5ccn(C)n5)c4n3)cc2)CC1` [Example 151, 6-(2,6-dichlorophenyl)-2-{[4-(4-methylpiperazin-1-yl)phenyl]amino}-8-(1-methyl-1H-pyrazol-3-yl)pyrimido[4,5-d]pyridazin-5(6H)-one] has a Ki of 0.07 nM.
In the case of `CN1CCN(c2ccc(Nc3ncc4c(=O)n(-c5ccccc5Cl)nc(-c5cccnc5)c4n3)cc2)CC1` [Example 98, 6-(2-chlorophenyl)-2-{[4-(4-methylpiperazin-1-yl)phenyl]amino}-8-(pyridin-3-yl)pyrimido[4,5-d]pyridazin-5(6H)-one], the Ki is reported as 0.5 nM.
For `O=c1c2cnc(Nc3ccc4c(c3)CNCC43CC3)nc2c(-c2cccc(F)n2)nn1-c1c(Cl)cccc1Cl` [Example 257, 6-(2,6-dichlorophenyl)-2-(2′,3′-dihydro-1′H-spiro[cyclopropane-1,4′-isoquinolin]-7′-ylamino)-8-(6-fluoropyridin-2-yl)pyrimido[4,5-d]pyridazin-5(6H)-one], the Ki was 2 nM.
For `CCc1nn(-c2c(Cl)cccc2Cl)c(=O)c2cnc(Nc3ccc4c(c3)CC(N(C)C)C4)nc12` (stereo not shown) [Example 406, 6-(2,6-dichlorophenyl)-2-{[2-(dimethylamino)-2,3-dihydro-1H-inden-5-yl]amino}-8-ethylpyrimido[4,5-d]pyridazin-5(6H)-one], the Ki was 0.7 nM.
`CC1(C)CNCc2cc(Nc3ncc4c(=O)n(CCO)nc(-c5ccccn5)c4n3)ccc21` [Example 283, 2-[(4,4-dimethyl-1,2,3,4-tetrahydroisoquinolin-7-yl)amino]-6-(2-hydroxyethyl)-8-(pyridin-2-yl)pyrimido[4,5-d]pyridazin-5(6H)-one] gave a Ki of 30 nM.
